What was measured:
ERK 1/2 = assay: H2O2-induced ERK 1/2 phosphorylation in astrocytes (ELISA); format: cell-based, rat; settings: H2O2 175 μM 40 min; for effect on H2O2-induced phosphorylation of ERK1/2: astrocytes preincubated 2 h
Description: (§1) Astrocytes were treated with TTF 2 h before the addition of H2O2. Cells were lysed 40 minutes after the addition of H2O2 in lysis buffer supplied by PathScan sandwich ELISA kit (Cell Signaling TECHNOLOGY) according to the manufacturer's protocol. Protein concentrations in cell lysates were determined by Bradford reagent (Bio-Rad, Hercules, Calif.), and equal amounts of proteins were subjected to ELISA. To measure the amount of total and phosphoSAPK/JNK in cell lysates of astrocytes, ELISA was performed according to the manufacturer's protocol using the PathScan total SAPK/JNK sandwich ELISA kit (Cell Signaling TECHNOLOGY) and the PathScan phospho-SAPK/JNK (Thr183/Tyr185) sandwich ELISA kit (Cell Signaling TECHNOLOGY), respectively. To measure the amount of total and phospho-ERK 1/2 (i.e. phospho-p44/42 MAPK) in cell lysates of astrocytes, ELISA was performed according to the manufacturer's protocol using the PathScan total p44/42 MAPK (ERK 1/2) sandwich ELISA kit (Cell Signaling TECHNOLOGY) and the PathScan phospho-p44/42 MAPK (Thr202/Tyr204) sandwich ELISA kit (Cell Signaling TECHNOLOGY), respectively. To measure the amount of total and phospho-MEK1 in cell lysates of astrocytes, ELISA was performed according to the manufacturer's protocol using the PathScan total MEK1 sandwich ELISA kit (Cell Signaling TECHNOLOGY) and the PathScan phospho-MEK1 (Ser217/221) sandwich ELISA kit (Cell Signaling TECHNOLOGY), respectively. […] The optical density was determined at 450 nm using a microplate reader.
(§2) 1. […] Determine the optical density at 450 nm using a microplate reader.
(§3) Astrocytes were treated with 175 μM of H2O2 for 40 min following preincubation with TTF for 2 h. The levels of phosphorylated and total SAPK/JNK (FIG. 3A), MEK1 (FIG. 3B) and ERK 1/2 (FIG. 3C) were measured by ELISA. […]

MEK1 = assay: H2O2-induced MEK1 phosphorylation in astrocytes (ELISA); format: cell-based, rat; settings: H2O2 175 μM 40 min; for effect on H2O2-induced phosphorylation of MEK1: astrocytes preincubated 2 h
Description: as §1, §2, §3

ERK1/2 = assay: Aβ25-35-induced ERK1/2 phosphorylation in N2a cells (ELISA); format: cell-based; settings: concomitant treatment 30-40 min
Description: 7. Measure the amount of total and phosphorylated ERK 1/2 in cell lysates of N2a cells, by ELISA using the PathScan total p44/42 MAPK (ERK 1/2) sandwich ELISA kit (Cell Signaling TECHNOLOGY) or the PathScan phosoho-p44/42 MAPK (Thr202/Tyr204) sandwich ELISA kit (Cell Signaling TECHNOLOGY), respectively. 8. Determine the optical density at 450 nm using a microplate reader.
N2a cells were treated concomitantly with Aβ25-35 and TTF for 30 min. Cells were extracted and the levels of phosphorylated or total ERK1/2 were determined by specific ELISA kits. The results are shown in FIG. 14 and are the mean±SEM of two different experiments (n=4).
N2a cells were treated concomitantly with Aβ25-35 and achillolide A for 40 min. Cells were extracted and the levels of phosphorylated or total ERK 1/2 were determined by specific ELISA kits. The results are the mean±SEM of two different experiments (n=4).
N2a cells were treated concomitantly with Aβ25-35 and memantine for 30 min. Cells were extracted and the levels of phosphorylated ERK1/2 were determined by a specific ELISA kit. The results are the mean±SEM of one experiment (n=2).

| Structure (SMILES) | effect on H2O2-induced phosphorylation of ERK1/2 (ERK 1/2) | effect on H2O2-induced phosphorylation of MEK1 (MEK1) | effect on Aβ25-35-induced phosphorylation of ERK1/2 (ERK1/2) | inhibition of H2O2-induced phosphorylation of ERK 1/2 (ERK 1/2; astrocytes pretreated 2 h, total ERK 1/2 not affected) | inhibition of H2O2-induced phosphorylation of MEK1 (MEK1; astrocytes pretreated 2 h, total MEK1 not affected) |
| --- | --- | --- | --- | --- | --- |
| CC12CC3CC(C)(C1)CC(N)(C3)C2 [memantine, reference compound] | inhibitory effect | inhibitory effect | does not affect |  |  |
| C=C1CCC2=C(CO)C(=O)O[C@H]2/C=C(\C)[C@H](OC(C)=O)CC1=O [achillolide A] | inhibitory effect | inhibitory effect | significantly decreased |  |  |
| COc1cc(-c2oc3cc(OC)c(OC)c(O)c3c(=O)c2O)ccc1O [TTF, 3,5,4′-trihydroxy-6,7,3′-trimethoxyflavone] |  |  | significantly inhibited | 30% | 27% |
